Data from patent US12377080B2, “Allosteric EGFR inhibitors and methods of use thereof” (Dana-Farber Cancer Institute, Inc., priority 2019, dated 2025).

What was measured:
[1] = tested on: EGFR L858R/T790M mutant Ba/F3 Cells; assay: Ba/F3 cell proliferation (Cell Titer Glo) in combination with cetuximab; format: cell-based, murine; conditions: 72 hours
Text: The EGFR mutant L858R, Del E746_A750, L858R/T790M, Del E746_A750/T790M, L858R/T790MIC797S, and DellT790MIC797S Ba/F3 cells have been previously described (Zhou, W., et al, Nature 462, 2009, 1070-1074). All cell lines were maintained in RPM I 1640 (Cellgro; Mediatech Inc., Herndon, CA) supplemented with 10% FBS, 100 units/mL penicillin, 100 units/mL streptomycin. The EGFR 1941 R mutation was introduced via site directed mutagenesis using the Quick Change Site-Directed Mutagenesis kit (Stratagene; La Jolla, CA) according to the manufacturer's instructions. All constructs were confirmed by DNA sequencing. The constructs were shuttled into the retroviral vector JP1540 using the Cre-recombination system (Agilent Technologies, Santa Clara, CA). Ba/F3 cells were then infected with retrovirus per standard protocols, as described previously (Zhou, et al, Nature 2009). Stable clones were obtained by selection in puromycin (2 μg/ml),
Growth and inhibition of growth was assessed by the Cell Titer Glo assay (Promega, Madison, WI) and was performed according to the manufacturer's instructions. The Cell Titer Glo assay is a luminescence-based method used to determine the number of viable cells based on quantitation of the ATP present, which is directly proportional to the amount of metabolically active cells present. Ba/F3 cells of different EGFR genotypes were exposed to compounds as a single agent or in combination with […] for 72 hours and the number of cells used per experiment was determined empirically as has been previously established (Zhou, et al., Nature 2009). All experimental points were set up in triplicates in 384-well plates and all experiments were repeated at least three times. […] The curves were fitted using a non-linear regression model with a sigmoidal dose response.

EGFR L858R/T790M = EGFR L858R/T790M (Homo sapiens (Human), UniProt P00533, L858R/T790M); assay: HTRF-based EGFR biochemical assay (L858R/T790M); conditions: 100 μM ATP
Chain of EGFR L858R/T790M (P00533 25-1210 T790M/L858R): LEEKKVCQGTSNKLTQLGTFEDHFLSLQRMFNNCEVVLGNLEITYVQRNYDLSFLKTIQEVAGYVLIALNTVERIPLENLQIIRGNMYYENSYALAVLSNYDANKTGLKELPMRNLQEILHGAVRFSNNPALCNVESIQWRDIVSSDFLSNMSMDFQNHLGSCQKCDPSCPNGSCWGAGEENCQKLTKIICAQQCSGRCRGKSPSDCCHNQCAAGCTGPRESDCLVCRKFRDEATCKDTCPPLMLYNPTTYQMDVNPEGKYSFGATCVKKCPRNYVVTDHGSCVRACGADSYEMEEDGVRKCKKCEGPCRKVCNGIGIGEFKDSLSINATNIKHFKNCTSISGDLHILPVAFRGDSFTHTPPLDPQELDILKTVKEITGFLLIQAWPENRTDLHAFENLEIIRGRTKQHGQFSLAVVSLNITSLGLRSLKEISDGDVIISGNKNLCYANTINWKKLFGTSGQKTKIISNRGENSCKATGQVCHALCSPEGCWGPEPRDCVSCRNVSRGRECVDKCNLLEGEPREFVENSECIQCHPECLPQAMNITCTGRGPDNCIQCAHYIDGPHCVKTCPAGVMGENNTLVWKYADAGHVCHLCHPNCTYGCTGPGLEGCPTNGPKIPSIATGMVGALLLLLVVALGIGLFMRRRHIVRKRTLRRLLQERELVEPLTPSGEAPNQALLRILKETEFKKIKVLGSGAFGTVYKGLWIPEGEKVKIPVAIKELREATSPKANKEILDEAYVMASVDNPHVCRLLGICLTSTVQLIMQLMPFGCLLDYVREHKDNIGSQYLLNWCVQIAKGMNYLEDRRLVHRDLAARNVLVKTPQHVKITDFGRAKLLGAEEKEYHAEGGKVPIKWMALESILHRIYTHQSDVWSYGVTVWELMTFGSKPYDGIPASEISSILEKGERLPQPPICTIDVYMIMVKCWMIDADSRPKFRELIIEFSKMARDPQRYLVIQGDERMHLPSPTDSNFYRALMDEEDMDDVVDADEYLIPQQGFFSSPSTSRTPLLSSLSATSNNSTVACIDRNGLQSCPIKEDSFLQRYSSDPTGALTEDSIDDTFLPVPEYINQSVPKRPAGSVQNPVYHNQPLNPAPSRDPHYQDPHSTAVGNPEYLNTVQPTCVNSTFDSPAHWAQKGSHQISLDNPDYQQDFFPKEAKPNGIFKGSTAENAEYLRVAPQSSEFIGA
Experimental: (§1) EGFR biochemical activity measurements were carried out using the homogeneous time-resolved fluorescence (HTRF) assay (Cisbio). Inhibitors and DMSO normalizations were first dispensed to empty black low-volume 384-well plates (Corning) with D300 digital liquid dispenser (HP). All reactions were carried out at room temperature and solutions were added to plates with a Multidrop Combi Reagent Dispenser (ThermoFisher). The reaction mixture (10 μL final volume) contained 1 μM tyrosine kinase peptide-biotin substrate and mutant EGFR in a reaction buffer (50 mM HEPES pH 7,0, 5 mM MgCl2,1 mM MnCl2, 0.01% BSA, 2 mM TCEP, 0.1 mM NaVO4). Enzyme concentrations were adjusted to accommodate varying kinase activities (L858R 0.1 nM, L858R!T790M 0,02 nM). Enzyme reaction solution (2× concentrations, 5 μL) was added to 384-well plates containing compounds and incubated for 30 mins. Enzyme reactions were initiated with the addition of […] of ATP to a final concentration of 100 μM and reacted for 20 mins. Reactions were quenched with the addition of 10 μL of phospho-tyrosine antibody-Europium(III) cryptate (1-to-180 volume ratio) and Streptavidin-XL665 (46.7 nM) in EDTA-containing detection buffer, then incubated at room temperature for 1 hour, and read with a PHERAstar plate reader (excitation =337 nm, emission =620 nm and 665 nm).

EGFR L858R = EGFR L858R (Homo sapiens (Human), UniProt P00533, L858R); assay: HTRF-based EGFR biochemical assay (L858R); conditions: 100 μM ATP
Chain of EGFR L858R (P00533 25-1210 L858R): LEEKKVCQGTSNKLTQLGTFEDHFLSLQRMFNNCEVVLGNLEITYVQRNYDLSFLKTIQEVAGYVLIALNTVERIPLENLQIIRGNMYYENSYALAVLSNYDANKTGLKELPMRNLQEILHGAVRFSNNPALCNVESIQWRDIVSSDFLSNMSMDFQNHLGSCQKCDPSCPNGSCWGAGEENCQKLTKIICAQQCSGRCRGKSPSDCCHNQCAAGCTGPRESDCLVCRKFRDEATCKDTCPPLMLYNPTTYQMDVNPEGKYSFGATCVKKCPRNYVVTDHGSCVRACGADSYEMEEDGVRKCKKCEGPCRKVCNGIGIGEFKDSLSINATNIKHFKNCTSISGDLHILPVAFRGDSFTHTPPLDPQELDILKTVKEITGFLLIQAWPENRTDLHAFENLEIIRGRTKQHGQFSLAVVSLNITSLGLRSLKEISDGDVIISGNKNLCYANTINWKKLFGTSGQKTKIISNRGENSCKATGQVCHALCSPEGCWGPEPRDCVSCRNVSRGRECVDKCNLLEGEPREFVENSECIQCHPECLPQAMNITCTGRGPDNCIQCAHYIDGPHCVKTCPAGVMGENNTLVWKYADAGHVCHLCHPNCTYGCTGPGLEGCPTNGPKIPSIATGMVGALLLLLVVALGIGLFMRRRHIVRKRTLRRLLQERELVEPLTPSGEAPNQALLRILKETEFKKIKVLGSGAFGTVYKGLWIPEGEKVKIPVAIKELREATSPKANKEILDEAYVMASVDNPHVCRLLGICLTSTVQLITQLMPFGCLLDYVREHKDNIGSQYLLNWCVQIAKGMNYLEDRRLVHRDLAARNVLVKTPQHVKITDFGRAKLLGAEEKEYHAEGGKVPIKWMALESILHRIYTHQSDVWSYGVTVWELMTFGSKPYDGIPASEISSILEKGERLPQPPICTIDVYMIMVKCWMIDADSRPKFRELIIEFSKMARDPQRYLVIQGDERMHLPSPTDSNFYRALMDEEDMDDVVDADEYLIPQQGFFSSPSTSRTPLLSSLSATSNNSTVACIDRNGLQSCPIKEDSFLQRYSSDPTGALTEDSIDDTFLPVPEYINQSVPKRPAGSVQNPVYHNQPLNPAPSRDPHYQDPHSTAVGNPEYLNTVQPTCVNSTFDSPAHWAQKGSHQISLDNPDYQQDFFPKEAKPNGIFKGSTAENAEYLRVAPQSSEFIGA
Experimental: as §1

SMILES: O=C(Nc1nccs1)C(c1cccc(F)c1)N1Cc2cnc(Br)cc2C1=O (centres unmarked) [Compound 1, 2-(6-bromo-1-oxo-1,3-dihydro-2H-pyrrolo[3,4-c]pyridin-2-yl)-2-(3-fluorophenyl)-N-(thiazol-2-yl)acetamide]
- IC50 [1]: 5480 nM

SMILES: O=C(Nc1nccs1)C(c1cccc(F)c1)N1Cc2ncc(Br)cc2C1=O (centres unmarked) [Compound 2, 2-(3-bromo-5-oxo-5,7-dihydro-6H-pyrrolo[3,4-b]pyridin-6-yl)-2-(3-fluorophenyl)-N-(thiazol-2-yl)acetamide]
- IC50 [1]: 380 nM

SMILES: O=C(Nc1ccccn1)C(c1cccc(F)c1)N1Cc2ncc(Br)cc2C1=O (centres unmarked) [Compound 3, 2-(3-bromo-5-oxo-5,7-dihydro-6H-pyrrolo[3,4-b]pyridin-6-yl)-2-(3-fluorophenyl)-N-(pyridin-2-yl)acetamide]
- IC50 [1]: 2370 nM

SMILES: O=C(Nc1nccs1)C(c1cccc(F)c1)N1Cc2ccc(Br)nc2C1=O (centres unmarked) [Compound 4, 2-(2-bromo-7-oxo-5,7-dihydro-6H-pyrrolo[3,4-b]pyridin-6-yl)-2-(3-fluorophenyl)-N-(thiazol-2-yl)acetamide]
- IC50 [1]: 1760 nM

SMILES: O=C(Nc1ccccn1)C(c1cccc(F)c1)N1Cc2ccc(Br)nc2C1=O (centres unmarked) [Compound 5, 2-(2-bromo-7-oxo-5,7-dihydro-6H-pyrrolo[3,4-b]pyridin-6-yl)-2-(3-fluorophenyl)-N-(pyridin-2-yl)acetamide]
- IC50 [1]: > 10000 nM

SMILES: CN1CCC(c2ccc(-c3cc4c(cn3)CN(C(C(=O)Nc3nccs3)c3cccc(F)c3)C4=O)cc2)CC1 (centres unmarked) [Compound 6, 2-(3-fluorophenyl)-2-(6-(4-(1-methylpiperidin-4-yl)phenyl)-1-oxo-1,3-dihydro-2H-pyrrolo-[3,4-c]pyridin-2-yl)-N-(thiazol-2-yl)acetamide]
- IC50 (EGFR L858R/T790M): 6 nM
- IC50 (EGFR L858R): 60 nM
- IC50 [1]: 130 nM

SMILES: CN1CCN(c2ccc(-c3cc4c(cn3)CN(C(C(=O)Nc3nccs3)c3cccc(F)c3)C4=O)cc2)CC1 (centres unmarked) [Compound 7, 2-(3-fluorophenyl)-2-(6-(4-(4-methylpiperazin-1-yl)phenyl)-1-oxo-1,3-dihydro-2H-pyrrolo-[3,4-c]pyridin-2-yl)-N-(thiazol-2-yl)acetamide]
- IC50 (EGFR L858R/T790M): 10 nM
- IC50 (EGFR L858R): 301 nM
- IC50 [1]: 480 nM

SMILES: CN1CCN(c2ccc(-c3cnc4c(c3)C(=O)N(C(C(=O)Nc3nccs3)c3cccc(F)c3)C4)cn2)CC1 (centres unmarked) [Compound 8, 2-(3-fluorophenyl)-2-(3-(6-(4-methylpiperazin-1-yl)pyridin-3-yl)-5-oxo-5,7-dihydro-6H-pyrrolo[3,4-b]pyridin-6-yl)-N-(thiazol-2-yl)acetamide]
- IC50 (EGFR L858R/T790M): 1 nM
- IC50 (EGFR L858R): 20 nM
- IC50 [1]: 200 nM

SMILES: CN1CCC(c2ccc(-c3cnc4c(c3)C(=O)N(C(C(=O)Nc3nccs3)c3cccc(F)c3)C4)cc2)CC1 (centres unmarked) [Compound 9, 2-(3-fluorophenyl)-2-(3-(4-(1-methylpiperidin-4-yl)phenyl)-5-oxo-5,7-dihydro-6H-pyrrolo-[3,4-b]pyridin-6-yl)-N-(thiazol-2-yl)acetamide]
- IC50 (EGFR L858R/T790M): 1 nM
- IC50 (EGFR L858R): 5 nM
- IC50 [1]: 10 nM

SMILES: CN1CCN(c2ccc(-c3cnc4c(c3)C(=O)N(C(C(=O)Nc3nccs3)c3cccc(F)c3)C4)cc2)CC1 (centres unmarked) [Compound 10, 2-(3-fluorophenyl)-2-(3-(4-(4-methylpiperazin-1-yl)phenyl)-5-oxo-5,7-dihydro-6H-pyrrolo-[3,4-b]pyridin-6-yl)-N-(thiazol-2-yl)acetamide]
- IC50 (EGFR L858R/T790M): 4 nM
- IC50 (EGFR L858R): 46 nM
- IC50 [1]: 100 nM

SMILES: CN1CCC(c2ccc(-c3cnc4c(c3)C(=O)N(C(C(=O)Nc3nccs3)c3cccc(F)c3)C4)cc2)C1 (centres unmarked) [Compound 11, 2-(3-fluorophenyl)-2-(3-(4-(1-methylpyrrolidin-3-yl)phenyl)-5-oxo-5,7-dihydro-6H-pyrrolo-[3,4-b]pyridin-6-yl)-N-(thiazol-2-yl)acetamide]
- IC50 (EGFR L858R/T790M): 3 nM
- IC50 (EGFR L858R): 27 nM
- IC50 [1]: 50 nM
